#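 Each compound was tested at five concentrations against cells in 96-well plates for 48 hours. GI50: concentration for 50% inhibition of growth. Definition used: TGI = concentration required for complete inhibition of growth.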
# System: 786-0 renal
# Assay: DTP human tumour cell line panel, 48 h
SMILES,GI50 [µM],TGI [µM]
COc1cc(OC)c(C(=O)/C=C/c2cccc(C(F)(F)F)c2)c(OC)c1,1.66,5.59
COc1cc2c(cc1OCCCCC(=O)Nc1cc3c4ccccc4ccc3c3ccccc13)N=C[C@@H]1CCCN1C2=O,7.21,18.8
CN1CCc2nc(N)nc(-c3nc(N)nc4c3CN(C)CC4)c2C1,,> 100
COc1c2c(cc3c1OCO3)[C@]13C=C[C@H](OC)C[C@H]1N(C2)CC3O (stereo partly drawn),,> 100
COc1ccc(-c2cc(-c3cc(C)cc(Br)c3O)no2)cc1,,31.6
COc1ccc(-c2nc3ccccn3c2/C=C/C(=O)c2cc(OC)c(OC)c(OC)c2)cc1OC,3.74,71
COc1c(C(=O)/C=C/c2ccccc2)c(O)cc2occc12,16.2,31.8
COc1cc2c3c(n(CCCN)c(=O)c2cc1OC)-c1ccc(C#N)cc1C3=O,4.43,20.3
CCCCC(CC)COC(=O)C[N+](C)(C)CCOC(c1ccccc1)c1ccccc1 (stereo not drawn),2.3,5.69
N#Cc1cc(-c2cc3ccccc3o2)oc1N,4.74,22.5
O=S(=O)(c1ccc(NC(=S)NC23CC4CC(CC(C4)C2)C3)cc1)N1CCCCC1,4.14,> 100
Cc1cc(NC(=S)SCc2ccc(F)cc2)c([N+](=O)[O-])cc1C,,> 100
CC12OC(C(=O)C13CC3)C1C(=O)c3ccc4c(ccc5ccccc54)c3C(=O)C12 (stereo not drawn),25.3,> 100

# System: A498 renal
# Assay: DTP human tumour cell line panel, 48 h
SMILES,GI50 [nM],TGI [µM]
COc1cc(OC)c(C(=O)/C=C/c2cccc(C(F)(F)F)c2)c(OC)c1,1400,4.44
COc1cc2c(cc1OCCCCC(=O)Nc1cc3c4ccccc4ccc3c3ccccc13)N=C[C@@H]1CCCN1C2=O,2900,9.38
CN1CCc2nc(N)nc(-c3nc(N)nc4c3CN(C)CC4)c2C1,,> 100
COc1c2c(cc3c1OCO3)[C@]13C=C[C@H](OC)C[C@H]1N(C2)CC3O (stereo partly drawn),,> 100
COc1ccc(-c2cc(-c3cc(C)cc(Br)c3O)no2)cc1,,13
COc1ccc(-c2nc3ccccn3c2/C=C/C(=O)c2cc(OC)c(OC)c(OC)c2)cc1OC,2930,17.8
COc1c(C(=O)/C=C/c2ccccc2)c(O)cc2occc12,7970,21.8
CCCCC(CC)COC(=O)C[N+](C)(C)CCOC(c1ccccc1)c1ccccc1 (stereo not drawn),3120,15.2
N#Cc1cc(-c2cc3ccccc3o2)oc1N,1760,4.68
O=S(=O)(c1ccc(NC(=S)NC23CC4CC(CC(C4)C2)C3)cc1)N1CCCCC1,2040,7.79

# System: ACHN renal
# Assay: DTP human tumour cell line panel, 48 h
SMILES,GI50 [µM],TGI [µM]
COc1cc(OC)c(C(=O)/C=C/c2cccc(C(F)(F)F)c2)c(OC)c1,1.46,5.17
COc1cc2c(cc1OCCCCC(=O)Nc1cc3c4ccccc4ccc3c3ccccc13)N=C[C@@H]1CCCN1C2=O,38.8,> 100
CN1CCc2nc(N)nc(-c3nc(N)nc4c3CN(C)CC4)c2C1,,> 100
COc1c2c(cc3c1OCO3)[C@]13C=C[C@H](OC)C[C@H]1N(C2)CC3O (stereo partly drawn),,> 100
COc1ccc(-c2cc(-c3cc(C)cc(Br)c3O)no2)cc1,,24
COc1ccc(-c2nc3ccccn3c2/C=C/C(=O)c2cc(OC)c(OC)c(OC)c2)cc1OC,3.22,15.7
COc1c(C(=O)/C=C/c2ccccc2)c(O)cc2occc12,4.51,19.9
COc1cc2c3c(n(CCCN)c(=O)c2cc1OC)-c1ccc(C#N)cc1C3=O,14.9,28.5
CCCCC(CC)COC(=O)C[N+](C)(C)CCOC(c1ccccc1)c1ccccc1 (stereo not drawn),15,30.5
N#Cc1cc(-c2cc3ccccc3o2)oc1N,3,11.1
O=S(=O)(c1ccc(NC(=S)NC23CC4CC(CC(C4)C2)C3)cc1)N1CCCCC1,3.12,> 100
Cc1cc(NC(=S)SCc2ccc(F)cc2)c([N+](=O)[O-])cc1C,,> 100

# System: HCT-116 colon
# Assay: DTP human tumour cell line panel, 48 h
SMILES,GI50 [µM],TGI [µM]
COc1cc(OC)c(C(=O)/C=C/c2cccc(C(F)(F)F)c2)c(OC)c1,0.806,1.59
COc1cc2c(cc1OCCCCC(=O)Nc1cc3c4ccccc4ccc3c3ccccc13)N=C[C@@H]1CCCN1C2=O,25.1,88.8
CN1CCc2nc(N)nc(-c3nc(N)nc4c3CN(C)CC4)c2C1,,> 100
COc1c2c(cc3c1OCO3)[C@]13C=C[C@H](OC)C[C@H]1N(C2)CC3O (stereo partly drawn),,> 100
COc1ccc(-c2cc(-c3cc(C)cc(Br)c3O)no2)cc1,,28.5
COc1ccc(-c2nc3ccccn3c2/C=C/C(=O)c2cc(OC)c(OC)c(OC)c2)cc1OC,2.62,12
COc1c(C(=O)/C=C/c2ccccc2)c(O)cc2occc12,3.72,12.5
COc1cc2c3c(n(CCCN)c(=O)c2cc1OC)-c1ccc(C#N)cc1C3=O,15.8,32.3
CCCCC(CC)COC(=O)C[N+](C)(C)CCOC(c1ccccc1)c1ccccc1 (stereo not drawn),1.8,3.32
N#Cc1cc(-c2cc3ccccc3o2)oc1N,3.65,12.2
O=S(=O)(c1ccc(NC(=S)NC23CC4CC(CC(C4)C2)C3)cc1)N1CCCCC1,3.34,> 100
Cc1cc(NC(=S)SCc2ccc(F)cc2)c([N+](=O)[O-])cc1C,,> 100
CC12OC(C(=O)C13CC3)C1C(=O)c3ccc4c(ccc5ccccc54)c3C(=O)C12 (stereo not drawn),43.7,> 100

# System: HL-60(TB) leukemia
# Assay: DTP human tumour cell line panel, 48 h
SMILES,TGI [µM],GI50 [µM]
CN1CCc2nc(N)nc(-c3nc(N)nc4c3CN(C)CC4)c2C1,> 100,
COc1c2c(cc3c1OCO3)[C@]13C=C[C@H](OC)C[C@H]1N(C2)CC3O (stereo partly drawn),> 100,
COc1ccc(-c2cc(-c3cc(C)cc(Br)c3O)no2)cc1,> 100,
COc1ccc(-c2nc3ccccn3c2/C=C/C(=O)c2cc(OC)c(OC)c(OC)c2)cc1OC,6.12,2.53
N#Cc1cc(-c2cc3ccccc3o2)oc1N,> 100,3.85
O=S(=O)(c1ccc(NC(=S)NC23CC4CC(CC(C4)C2)C3)cc1)N1CCCCC1,6.24,2.65
Cc1cc(NC(=S)SCc2ccc(F)cc2)c([N+](=O)[O-])cc1C,45.4,
CC12OC(C(=O)C13CC3)C1C(=O)c3ccc4c(ccc5ccccc54)c3C(=O)C12 (stereo not drawn),> 100,33.2
